Experimental data from patent US20140179681A1, “METHODS AND COMPOSITIONS OF TARGETED DRUG DEVELOPMENT” (priority 2010, published 2014).

Experiments:
EGF binding site = biological target: T1, EGF binding site (Rattus norvegicus, UniProt G3V6K6); test: Inhibition of [125I]EGF binding (EGF inhibitor assay, NovaScreen); conditions: determined at 25 μM; rat liver membranes; result in words
T1 construct: Receptor source was rat liver membranes; tissue NovaScreen BioSciences; host or cells: rat liver membranes
T1 sequence (G3V6K6 25-1209): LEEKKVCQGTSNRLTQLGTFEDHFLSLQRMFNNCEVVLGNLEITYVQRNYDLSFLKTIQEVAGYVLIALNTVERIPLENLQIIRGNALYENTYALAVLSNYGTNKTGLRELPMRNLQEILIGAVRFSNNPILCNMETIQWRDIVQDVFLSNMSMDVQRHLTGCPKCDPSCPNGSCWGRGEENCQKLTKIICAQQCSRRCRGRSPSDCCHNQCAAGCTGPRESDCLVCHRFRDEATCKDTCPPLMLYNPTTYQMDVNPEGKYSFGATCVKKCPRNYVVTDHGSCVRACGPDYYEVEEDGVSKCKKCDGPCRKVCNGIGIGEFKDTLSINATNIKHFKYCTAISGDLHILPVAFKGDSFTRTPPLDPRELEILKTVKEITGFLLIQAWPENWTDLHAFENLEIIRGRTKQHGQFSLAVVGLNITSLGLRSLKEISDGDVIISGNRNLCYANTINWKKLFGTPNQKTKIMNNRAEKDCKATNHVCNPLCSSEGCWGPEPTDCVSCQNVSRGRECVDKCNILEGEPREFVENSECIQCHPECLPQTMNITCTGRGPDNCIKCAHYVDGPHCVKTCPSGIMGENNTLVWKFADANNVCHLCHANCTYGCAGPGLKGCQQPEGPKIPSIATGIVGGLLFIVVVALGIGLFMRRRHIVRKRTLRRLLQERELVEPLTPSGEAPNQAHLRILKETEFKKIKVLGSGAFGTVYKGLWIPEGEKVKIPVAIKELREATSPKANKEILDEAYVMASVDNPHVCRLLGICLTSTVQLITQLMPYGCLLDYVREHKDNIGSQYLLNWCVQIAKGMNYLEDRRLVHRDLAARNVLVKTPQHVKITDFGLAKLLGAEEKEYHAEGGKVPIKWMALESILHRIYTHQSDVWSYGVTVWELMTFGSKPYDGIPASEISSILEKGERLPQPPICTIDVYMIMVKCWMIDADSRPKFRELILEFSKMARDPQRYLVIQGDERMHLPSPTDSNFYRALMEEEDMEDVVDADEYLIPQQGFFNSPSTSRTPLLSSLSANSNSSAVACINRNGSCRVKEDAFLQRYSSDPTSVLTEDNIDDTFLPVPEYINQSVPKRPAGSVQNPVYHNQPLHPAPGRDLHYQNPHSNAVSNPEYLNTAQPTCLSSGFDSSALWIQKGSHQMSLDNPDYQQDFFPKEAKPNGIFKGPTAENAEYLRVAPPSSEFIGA
Method: Identified compounds, representing various pharmacophore models, were tested for ability to inhibit EGFR at 25 μM.
AD4-compounds were identified using pharmacophore models (see Example 3, Example 4) and then were docked with the binding site of EGFR (SEQ ID NO: 1) that is recognized by defined CDRs of cetuximab. The inhibition of epidermal growth factor binding by AD4-compounds was then determined (NovaScreen BioSciences, Hanover, Md.). Inhibition of EGF binding was determined at 25 μM concentration.
Receptor source was rat liver membranes. The radioligand was [^125I]EGF ([…]) at a final ligand concentration of 0.36 nM. A non-specific determinant was used as EGF—[100 nM]. The reference compound and positive control was EGF. Reactions were carried out in 10 mM HEPES (pH 7.4) containing 0.1% BSA at 25° C. for 60 minutes. The reaction was terminated by rapid vacuum filtration onto glass fiber filters. Radioactivity trapped onto the filters was determined and compared to control values to ascertain any interactions of test compounds with the EGF binding site. The EGF inhibitor assays were modified from, for example, Mukku (1984) J. Biol. Chem. 259, 6543-6546; Duh et al. (1990) World J. Surgery 14, 410-418; Lokeshwar et al. (1989) J. Biol. Chem. 264(32), 19318-19326.

EGFR = biological target: T2, EGFR (Homo sapiens, UniProt P00533); test: EGFR in-cell Western (ICW) screening protocol (EGFR inhibition assay); assay type: cell-based; conditions: % Inhibition of EGF dependent EGFR phosphorylation in A431 cells, compound 125 μM in assay
T2 construct: host or cells: A431
T2 sequence (P00533 25-1210): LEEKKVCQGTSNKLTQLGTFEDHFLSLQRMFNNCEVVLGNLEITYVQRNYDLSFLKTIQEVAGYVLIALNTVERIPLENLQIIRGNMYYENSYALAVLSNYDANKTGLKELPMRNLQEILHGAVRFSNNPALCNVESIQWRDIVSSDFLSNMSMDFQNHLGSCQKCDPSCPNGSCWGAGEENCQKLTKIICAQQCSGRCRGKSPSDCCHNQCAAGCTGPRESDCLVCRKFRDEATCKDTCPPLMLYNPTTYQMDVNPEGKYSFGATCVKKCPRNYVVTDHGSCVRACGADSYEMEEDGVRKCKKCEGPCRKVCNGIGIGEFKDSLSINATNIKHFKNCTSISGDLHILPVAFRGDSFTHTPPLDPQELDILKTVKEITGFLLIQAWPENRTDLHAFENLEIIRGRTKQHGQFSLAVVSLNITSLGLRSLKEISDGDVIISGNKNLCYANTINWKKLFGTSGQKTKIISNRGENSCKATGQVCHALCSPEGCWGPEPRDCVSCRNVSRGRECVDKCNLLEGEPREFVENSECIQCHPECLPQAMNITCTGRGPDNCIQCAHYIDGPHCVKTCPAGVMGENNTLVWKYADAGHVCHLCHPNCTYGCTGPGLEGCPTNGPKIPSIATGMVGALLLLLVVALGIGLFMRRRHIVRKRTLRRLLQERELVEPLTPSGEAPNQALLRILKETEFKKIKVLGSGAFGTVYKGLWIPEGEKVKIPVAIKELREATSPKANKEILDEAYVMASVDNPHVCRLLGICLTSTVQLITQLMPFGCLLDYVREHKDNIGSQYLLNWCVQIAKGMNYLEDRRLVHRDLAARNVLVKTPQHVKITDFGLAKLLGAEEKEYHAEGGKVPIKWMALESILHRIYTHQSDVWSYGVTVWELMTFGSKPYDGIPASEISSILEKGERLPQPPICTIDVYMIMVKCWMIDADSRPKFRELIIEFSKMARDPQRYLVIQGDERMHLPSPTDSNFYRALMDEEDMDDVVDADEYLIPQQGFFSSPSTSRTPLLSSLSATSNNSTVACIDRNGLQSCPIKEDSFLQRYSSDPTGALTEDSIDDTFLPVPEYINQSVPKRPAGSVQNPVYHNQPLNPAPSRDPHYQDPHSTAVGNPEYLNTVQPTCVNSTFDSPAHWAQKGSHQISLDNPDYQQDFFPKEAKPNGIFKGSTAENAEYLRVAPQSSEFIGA
Method in brief: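 In-cell Western read-out: fixed A431 cells were co-stained for total EGFR and phospho-EGFR (Tyr1173; some runs Tyr1045). Before fixation, cells were serum-starved for 2 h, exposed to compound for 4 h, then given EGF for 10 min, usually at 10 ng/ml final (6.6 or 12.5 ng/ml in some runs).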

| ICW assay (EGFR; Table 10) | ICW Screen (EGFR; Table 11) | Compound | inhibition of epidermal growth factor binding to its receptor (EGF binding site) |
| --- | --- | --- | --- |
| 112.858 | – | Cc1cc(C)cc(NS(=O)(=O)c2ccc(NC(=S)Nc3ccccc3)cc2)c1 [AD4-11091] | inhibitor of epidermal growth factor binding to its receptor |
| – | 65.9 | CCc1cc2c(CN3CCN(Cc4ccc5c(c4)OCO5)CC3)cc(=O)oc2cc1O [AD4-1734] | inhibitor of epidermal growth factor binding to its receptor |
